Assay results from patent US12686674B2, “Crystal form of compound represented by formula I, and preparation therefor and application thereof” (Shanghai Zhimeng Biopharma, Inc., priority 2021, dated 2026).
Values after ≈ are worked out from the molar mass of the structure shown.

How the values were obtained:
Assay type in all cases: physicochemical
[1] = Hygroscopicity by DVS at 25° C.
Experimental: Hygroscopicity data of samples were collected using an ADVENTURE series dynamic vapor phase adsorption system (DVS) under N2 protection. Sample dosage ~30 mg. The testing method for anhydrous crystal form is as follows: • 1) Relative humidity increase process: 0% RH to 90% RH at a rate of 10% RH/stage; 90% RH to 95% RH at a rate of 5% RH/stage; • 2) Relative humidity reduction process: 95% RH to 90% RH at a rate of 5% RH/stage; 90% RH to 5% RH at a rate of 10% RH/stage. H Nuclear Magnetic Resonance Spectroscopy (H-NMR)

[2] = Solid-state stability, placed open one and two weeks (HPLC purity, XRPD)
Experimental: Purity tests (HPLC) and crystal form detection (XRPD) were performed on starting samples, samples stored for one week and two weeks.

[3] = Rough solubility at room temperature
Experimental: Specifically, ~2 mg of the starting material was weighed in an HPLC vial, the solvents in the following table were added step by step (50/50/200/700 μL) until the solid is completely dissolved or the total volume reaches 1.0 mL.

[4] = Influencing factor test of crystal form A (high temperature, high humidity, light); settings: High temperature (60° C.), Day 30

hygroscopicity ([1]; DVS at 25° C.): hardly hygroscopic | weight gain (DVS) ([1]; at 80% RH, 25° C.): 0.14% | crystal form after DVS testing (XRPD) ([1]; before and after DVS test): unchanged | Purity(Area %) ([2]; 1 week, 25° C./60% RH, open): 99.08 Area % | Purity(Area %) ([2]; 1 week, 40° C./75% RH, open): 99.07 Area % | Purity(Area %) ([2]; 1 week, 60° C., open): 99.09 Area % | change in Crystal form (XRPD) ([2]; 1 week, 25° C./60% RH, 40° C./75% RH, 60° C.): Unchanged | Purity(Area %) ([2]; 2 week, 25° C./60% RH, open): 99.12 Area % | Purity(Area %) ([2]; 2 week, 40° C./75% RH, open): 99.14 Area % | Purity(Area %) ([2]; 2 week, 60° C., open): 99.13 Area % | change in Crystal form (XRPD) ([2]; 2 week, 25° C./60% RH, 40° C./75% RH, 60° C.): Unchanged | Purity(Area %) ([2]; Starting sample): 99.12 Area % | solubility ([3]; organic solvent or mixture, thermodynamic from solid, 1,4-Dioxane): 6900 to 20700 µg/mL (≈ 12.3 to 36.8 mM) | solubility ([3]; organic solvent or mixture, thermodynamic from solid, 2-MeTHF): 6900 to 20700 µg/mL (≈ 12.3 to 36.8 mM) | solubility ([3]; organic solvent or mixture, thermodynamic from solid, ACN): < 2100 µg/mL | solubility ([3]; organic solvent or mixture, thermodynamic from solid, Acetone): 6800 to 20300 µg/mL (≈ 12.1 to 36.1 mM) | solubility ([3]; organic solvent or mixture, thermodynamic from solid, CH3COOH): > 41800 µg/mL | solubility ([3]; organic solvent or mixture, thermodynamic from solid, CPME): < 2000 µg/mL | solubility ([3]; organic solvent or mixture, thermodynamic from solid, DCM): < 2100 µg/mL | solubility ([3]; organic solvent or mixture, thermodynamic from solid, DMF): > 41200 µg/mL | solubility ([3]; organic solvent or mixture, thermodynamic from solid, DMSO): > 40400 µg/mL | solubility ([3]; organic solvent or mixture, thermodynamic from solid, EtOAc): < 2100 µg/mL | solubility ([3]; organic solvent or mixture, thermodynamic from solid, EtOH): 2000 to 6700 µg/mL (≈ 3.56 to 11.9 mM) | solubility ([3]; organic solvent or mixture, thermodynamic from solid, IPA): < 2100 µg/mL | solubility ([3]; organic solvent or mixture, thermodynamic from solid, IPAc): < 2000 µg/mL | solubility ([3]; organic solvent or mixture, thermodynamic from solid, MEK): 2000 to 6600 µg/mL (≈ 3.56 to 11.7 mM) | solubility ([3]; organic solvent or mixture, thermodynamic from solid, MIBK): < 2000 µg/mL | solubility ([3]; organic solvent or mixture, thermodynamic from solid, MTBE): < 2000 µg/mL | solubility ([3]; organic solvent or mixture, thermodynamic from solid, MeOH): 2000 to 6600 µg/mL (≈ 3.56 to 11.7 mM) | solubility ([3]; organic solvent or mixture, thermodynamic from solid, THF): > 40400 µg/mL | solubility ([3]; organic solvent or mixture, thermodynamic from solid, Toluene): < 2000 µg/mL | solubility ([3]; organic solvent or mixture, thermodynamic from solid, n-Heptane): < 2000 µg/mL | solubility ([3]; water, thermodynamic from solid, H2O): < 2100 µg/mL | Moisture (KF) [4]: 0.09%
SMILES: O=C1CO[C@H](c2cn(-c3ccc(Br)cc3)nc2-c2ccc(F)cc2)N1CCc1ccc2[nH]c(=O)[nH]c2c1 [Crystal form A]
